This note sets out measurements from PubChem BioAssay (NCI).

Test systems include A498 renal; DU-145 prostate; SW-620 colon; SK-MEL-2 melanoma; OVCAR-4 ovarian; HCC-2998 colon; MDA-MB-435; NCI-H460 lung; SK-OV-3 ovarian; HCT-116 colon; TK-10 renal; SNB-75 CNS; HL-60(TB) leukemia; MDA-MB-231 breast; MALME-3M melanoma; HOP-62 NSCLC; M14 melanoma; CCRF-CEM leukemia; SN12C renal.
Common to all, as to assay: NCI anticancer screen, dose series, 48 h

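Briefly, cells in 96-well plates were exposed to five compound concentrations for 48 h, and endpoints were estimated by linear interpolation. TGI denotes the concentration required for complete inhibition of growth.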 Some results are limits rather than exact numbers.

With `O=C(c1ccccc1)c1c2ccccn2c2cccc[n+]12`, the TGI in the assay with A498 renal, in the assay on DU-145 prostate, in the assay with SW-620 colon, in the assay on SK-MEL-2 melanoma, in the assay with OVCAR-4 ovarian and with HCC-2998 colon was greater than 100 µM in each case. Further, the TGI in the assay on MDA-MB-435, with NCI-H460 lung, with SK-OV-3 ovarian, with HCT-116 colon, with TK-10 renal and with SNB-75 CNS was greater than 100 µM each time. In addition, the TGI in the assay with HL-60(TB) leukemia, in the assay with MDA-MB-231 breast, in the assay on MALME-3M melanoma, in the assay with HOP-62 NSCLC, with M14 melanoma and with CCRF-CEM leukemia was greater than 100 µM each time.
Turning to `O=C1c2ccccc2S[C@@H](O)[C@@H]2CCCN12`, the TGI in the assay on SW-620 colon, in the assay on SK-MEL-2 melanoma, in the assay with HCC-2998 colon, in the assay on NCI-H460 lung, with SK-OV-3 ovarian and in the assay on HCT-116 colon was greater than 100 µM each time. Further, the TGI in the assay on TK-10 renal, in the assay on HL-60(TB) leukemia, with SN12C renal, in the assay on MALME-3M melanoma, in the assay with HOP-62 NSCLC and in the assay with M14 melanoma was greater than 100 µM in each case. For the same compound, in the assay on CCRF-CEM leukemia, the TGI was greater than 100 µM.
As for `O=C1CCC(c2ccccc2)C(O)(C(=O)O)C1` (configuration not stated), the TGI with A498 renal, in the assay on SW-620 colon, in the assay on SK-MEL-2 melanoma, with OVCAR-4 ovarian, in the assay with HCC-2998 colon and in the assay on NCI-H460 lung was greater than 100 µM in each case. For the same compound, the TGI in the assay on SK-OV-3 ovarian, in the assay with HCT-116 colon, in the assay with TK-10 renal, in the assay on SNB-75 CNS, in the assay on HL-60(TB) leukemia and in the assay on SN12C renal was greater than 100 µM throughout. Further, the TGI with MALME-3M melanoma, with HOP-62 NSCLC, in the assay on M14 melanoma and in the assay with CCRF-CEM leukemia was greater than 100 µM each time.
On to `Cc1cc(=O)[nH]c(NNC(C#N)c2ccc(O)cc2)n1` (configuration not stated), for which the TGI in the assay with SW-620 colon, with SK-MEL-2 melanoma, in the assay on OVCAR-4 ovarian, in the assay with NCI-H460 lung, in the assay on SK-OV-3 ovarian and in the assay with HCT-116 colon was greater than 100 µM in each case. Also, the TGI in the assay with TK-10 renal, with SNB-75 CNS, in the assay on HL-60(TB) leukemia, in the assay on SN12C renal, in the assay on MALME-3M melanoma and in the assay with HOP-62 NSCLC was greater than 100 µM throughout. The TGI with M14 melanoma and with CCRF-CEM leukemia was greater than 100 µM throughout.
`CC1=CC(=O)NP(=O)(Oc2ccc(C)cc2)N1` (configuration not stated): the TGI in the assay with A498 renal, in the assay with SW-620 colon, in the assay with SK-MEL-2 melanoma, in the assay on OVCAR-4 ovarian, in the assay with NCI-H460 lung and with SK-OV-3 ovarian was greater than 100 µM in each case. Moreover, the TGI with HCT-116 colon, with TK-10 renal, with SNB-75 CNS, in the assay with HL-60(TB) leukemia, in the assay on SN12C renal and with MALME-3M melanoma was greater than 100 µM throughout. Also, the TGI with HOP-62 NSCLC, in the assay on M14 melanoma and with CCRF-CEM leukemia was greater than 100 µM throughout.
With `N#CCCN(c1ccc(/C=C2\N=C(c3ccc(Cl)cc3)OC2=O)cc1)S(=O)(=O)c1ccccc1`, the TGI in the assay on A498 renal, in the assay on SW-620 colon, with SK-MEL-2 melanoma, with OVCAR-4 ovarian, in the assay on HCC-2998 colon and in the assay with NCI-H460 lung was greater than 100 µM throughout. Moreover, the TGI in the assay with SK-OV-3 ovarian, with HCT-116 colon, in the assay on TK-10 renal, with SNB-75 CNS, with HL-60(TB) leukemia and in the assay on SN12C renal was greater than 100 µM throughout. Besides, the TGI in the assay with HOP-62 NSCLC and in the assay with M14 melanoma was greater than 100 µM each time.
For the compound `CCSc1nc(N2CCOCC2)c2cn[nH]c2n1`, the TGI with A498 renal is 15.9 µM; in the assay with DU-145 prostate it was greater than 100 µM; with SW-620 colon, greater than 100 µM; in the assay on SK-MEL-2 melanoma, greater than 100 µM; in the assay on OVCAR-4 ovarian, greater than 100 µM; in the assay with HCC-2998 colon, greater than 100 µM. For the same compound, the TGI in the assay with MDA-MB-435, in the assay with NCI-H460 lung, with SK-OV-3 ovarian, with HCT-116 colon, in the assay with TK-10 renal and in the assay on SNB-75 CNS was greater than 100 µM each time. Also, the TGI in the assay on HL-60(TB) leukemia, in the assay on SN12C renal, with MDA-MB-231 breast, in the assay with MALME-3M melanoma, in the assay on HOP-62 NSCLC and with M14 melanoma was greater than 100 µM each time. Moreover, the TGI with CCRF-CEM leukemia is greater than 100 µM.
As to `COc1ccc(OC)c2c1C(=O)C(Cl)=C(N1CCN(CCOCCO)CC1)C2=O`, the TGI was 30.5 µM in the assay on A498 renal; 32.8 µM with DU-145 prostate; 28.7 µM in the assay with SW-620 colon; 32 µM with OVCAR-4 ovarian; 24.9 µM in the assay on HCC-2998 colon; 27.9 µM in the assay with MDA-MB-435. Moreover, the TGI in the assay with NCI-H460 lung worked out at 38 µM; in the assay with SK-OV-3 ovarian it was 34 µM; in the assay with HCT-116 colon, 17 µM; in the assay on TK-10 renal it was 33.4 µM; in the assay on SNB-75 CNS, 29.3 µM; with HL-60(TB) leukemia, 3.33 µM. Further, the TGI in the assay with SN12C renal turned out to be 25.5 µM; in the assay with MDA-MB-231 breast, 27.7 µM; in the assay on MALME-3M melanoma, 34.9 µM; in the assay on HOP-62 NSCLC, 22.7 µM; in the assay on M14 melanoma, 31.7 µM; in the assay on CCRF-CEM leukemia, 14.1 µM.
As for `CC(=O)NC(CCCN)C(=O)NCc1ccccc1` (configuration not stated), the TGI with A498 renal, in the assay on SW-620 colon, in the assay with SK-MEL-2 melanoma, in the assay on OVCAR-4 ovarian, with HCC-2998 colon and with NCI-H460 lung was greater than 100 µM throughout. Besides, the TGI in the assay on SK-OV-3 ovarian, in the assay on HCT-116 colon, in the assay with TK-10 renal, with SNB-75 CNS, in the assay on SN12C renal and with MALME-3M melanoma was greater than 100 µM in each case. The TGI in the assay with HOP-62 NSCLC, in the assay with M14 melanoma and in the assay with CCRF-CEM leukemia was greater than 100 µM in each case.
